{"source": "patent US20020165188A1", "about": "“Methods for inhibition of tumorigenic properties of melanoma cells” (priority 1999, published 2002)", "key": {"[1]": {"system": "E-cadherin", "assay": "E-cadherin expression in melanocytic cells under HGF stimulation (immunoblot)", "assay_type": "cell-based, human", "protocol": "(§1) Optimal viral concentrations for infection were determined as the amounts of virus required to yield the desired levels of gene expression without apparent alteration in cellular phenotype or toxicity. Subconfluent melanocytes and melanoma cells were infected with adenoviruses for 2-4 hours at 37° C. in protein-free W489 medium. Viral suspension was then replaced with culture medium. Because dominant negative Desmoglein-3 vector AxCALNLDsg3ΔEC and E-cadherin vector AxCALNLEcadΔEC were made using the Cre-loxP system (Hanakawa et al., 2000), AxCANCre was co-infected with AxCALNLDsg3ΔEC or AxCALNLEcacLΔEC at a ratio of 1:1, respectively. Cells were allowed to recover for at least 24 hours before assay.\n(§2) For immunoblotting, cells were washed with PBS and harvested in RIPA buffer. Total protein concentrations were measured using the bicinchoninic acid (BCA) assay (Pierce Chemical Co. Rockford, Ill.). Samples were loaded at 15 μg/lane and separated on 8% SDS polyacrylamide gels and transferred to polyvinylidene difluoride (PVDF) membranes and probed with specific primary antibodies. To detect the signal, peroxidase-conjugated secondary antibody was added, followed by exposure using enhanced chemiluminescence (ECL) (Amersham, Arlington Heights, Ill.). Some of the immunoblots were quantified using NIH Image (version 1.61)."}, "[2]": {"system": "Desmoglein 1", "assay": "Desmoglein 1 expression in melanocytic cells under HGF stimulation (immunoblot)", "assay_type": "cell-based, human", "protocol": "as §1, §2"}, "[3]": {"system": "melanocytes or melanoma cells", "assay": "Growth of melanocytes and melanoma cells after HGF treatment", "assay_type": "cell-based, human", "settings": "HGF treatment alone"}, "[4]": {"system": "c-Met", "assay": "c-Met phosphorylation by immunoprecipitation and anti-phosphotyrosine blot", "assay_type": "cell-based, human", "protocol": "To investigate the status of c-Met phosphorylation, subconfluent melanoma cells were infected with LacZ or Ad.CMV.rhHGF (20 pfu/cell) and cultured for 48 hours. In neutralizing antibody-treated group, HGF neutralizing antibody (final concentration 10 ug/ml) was added to serum-free medium 24 hours before lysis. Cells were washed with cold PBS containing 1 mM Na3VO4, and rapidly scraped into 200 μl PBS containing 1% Triton X-100, 1% NP4O, 1 mM Na3VO4, 1 mM phenylmethyl sulfonyl fluoride (PMSF), and protease inhibitors (1 μg/ml leupeptin, aprotinin and pepstatin). After incubation on ice for 15 minutes, the extracts were separated by centrifugation at 13,000× g for 10 minutes. The supernatants were used for immunoprecipitation using an anti-c-Met antibody (5 μg) for 1 hour at 4° C. with shaking. Protein A-G sepharose CL-4B beads (Pharmacia Biotech, Uppsala, Sweden) were then added and incubated for 12 hours. Samples were washed four times with lysis buffer, boiled in Laemmli buffer containing (3-mercaptoethanol, and subjected to electrophoresis on an 8% SDS-polyacrylamide gel. Separated proteins were transferred onto PVDF membrane and detected by anti-phosphotyrosine primary antibody (PY2O) and peroxidase-conjugated secondary antibody. Signals were detected using ECL."}, "[5]": {"biological_target": "T1, IGF-R1 (human, UniProt P08069 31-1367, limits assumed)", "T1 construct": "Specificity control of the co-immunoprecipitation; also called IF-R1", "T1 sequence (P08069 31-1367 limits assumed)": "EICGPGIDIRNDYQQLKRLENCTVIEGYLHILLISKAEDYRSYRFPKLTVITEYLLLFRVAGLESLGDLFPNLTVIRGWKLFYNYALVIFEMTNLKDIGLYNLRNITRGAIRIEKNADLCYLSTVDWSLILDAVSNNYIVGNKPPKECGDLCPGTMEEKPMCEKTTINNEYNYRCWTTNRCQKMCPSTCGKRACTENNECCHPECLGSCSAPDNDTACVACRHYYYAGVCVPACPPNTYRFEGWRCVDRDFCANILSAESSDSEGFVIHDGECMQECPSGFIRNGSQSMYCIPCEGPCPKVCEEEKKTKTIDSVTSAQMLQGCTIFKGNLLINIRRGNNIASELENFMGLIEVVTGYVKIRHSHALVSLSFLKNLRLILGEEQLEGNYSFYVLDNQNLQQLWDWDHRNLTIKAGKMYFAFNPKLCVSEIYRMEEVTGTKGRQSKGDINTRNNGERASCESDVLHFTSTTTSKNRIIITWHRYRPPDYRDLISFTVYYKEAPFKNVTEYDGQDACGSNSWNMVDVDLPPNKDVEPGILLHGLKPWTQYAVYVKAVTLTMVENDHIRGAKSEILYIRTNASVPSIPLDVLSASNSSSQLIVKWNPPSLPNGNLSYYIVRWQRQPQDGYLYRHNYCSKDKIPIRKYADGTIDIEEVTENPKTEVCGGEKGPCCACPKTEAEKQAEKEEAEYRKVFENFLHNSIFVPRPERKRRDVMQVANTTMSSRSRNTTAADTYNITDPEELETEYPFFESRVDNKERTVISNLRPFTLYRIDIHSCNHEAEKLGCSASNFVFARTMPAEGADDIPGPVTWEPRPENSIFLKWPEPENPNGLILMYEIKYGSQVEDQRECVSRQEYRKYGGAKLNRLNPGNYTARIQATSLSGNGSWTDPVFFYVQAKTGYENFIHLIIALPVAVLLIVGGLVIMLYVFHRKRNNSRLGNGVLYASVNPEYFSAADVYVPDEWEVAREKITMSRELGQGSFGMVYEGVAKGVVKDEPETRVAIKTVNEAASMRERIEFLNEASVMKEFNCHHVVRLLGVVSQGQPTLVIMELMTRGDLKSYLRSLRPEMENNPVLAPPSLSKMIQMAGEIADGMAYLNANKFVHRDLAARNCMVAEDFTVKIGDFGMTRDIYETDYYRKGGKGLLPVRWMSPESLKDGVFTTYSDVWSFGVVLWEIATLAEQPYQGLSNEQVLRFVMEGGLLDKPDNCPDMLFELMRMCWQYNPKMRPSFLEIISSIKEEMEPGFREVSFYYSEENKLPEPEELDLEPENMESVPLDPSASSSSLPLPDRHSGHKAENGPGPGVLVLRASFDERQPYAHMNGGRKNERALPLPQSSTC", "assay": "co-immunoprecipitation with anti-Desmoglein 1 antibody, blot probed with anti-IGF-R1 antibody", "from_the_text": "(§3) Desmoglein 1, E-cadherin, c-Met and Plakoglobin can be co-immunoprecipitated from melanocytic cells. […] To test the possibility that physical interactions underlie the crosstalk between HGF/c-Met signaling and adhesion receptor regulation, the complex formation was investigated by immunoprecipitation analyses. Desmoglein 1, Plakoglobin, c-Met and E-cadherin were detected in the complexes pulled down by either anti-Desmoglein 1 antibody or anti-Plakoglobin antibody in keratinocytes and melanocytes. WM278 expresses no E-cadherin, but the other components were also found to form complexes. The specificity of the interaction was confirmed by probing the same blots with anti-IF-R1 antibody. IF-R1 was not detected in the immunoprecipitants but IF-R1 was detectable in whole cell extract.\n(§4) To investigate c-Met Desmoglein lE-cadherin complexes, cells cultured in their optimal media were lysed in 10 mM Tris-HCl (pH7.4), 1% NP-40, 1% Triton X-100, 2mM CaCl₂, 150 mM NaCl, 1 mM PMSF and protease inhibitors (1 μg/ml leupeptin, aprotinin and pepstatin). The extracts were immunoprecipitated using either anti-Desmoglein 1 or anti-Plakoglobin antibody in the same condition described above. Immunoprecipitants were separated on gels, transferred onto PVDF membrane and probed with anti-Desmoglein 1, -Plakoglobin, -c-Met and -E-cadherin antibodies."}, "[6]": {"biological_target": "T1, IGF-R1", "assay": "co-immunoprecipitation with anti-Plakoglobin antibody, blot probed with anti-IGF-R1 antibody", "from_the_text": "as §3, §4"}, "[7]": {"settings": "Ad.CMV.rhHGF transduced melanocytes, antibody 10 μg/ml, wortmannin 30 μM, PD98059 10 μM and 50 μM"}, "[8]": {"settings": "autocrine activation by HGF-expressing adenovirus, melanocytes, WM164, WM35"}, "[9]": {"settings": "continuous/prolonged HGF stimulation (three days; Ad.CMV.rhHGF 20 pfu/cell), melanocytes, WM164 and WM35"}, "[10]": {"settings": "melanocytes, one pulse of recombinant protein 50 ng/ml, five and twelve hour intervals"}}, "note": "Entries after “also recorded” stand apart in the source; their conditions may differ."}
{"molecule": "COc1cccc(-c2cc(=O)c3ccccc3o2)c1N", "note": "[PD98059, reference compound]", "values": [{"measurement": "blocking of HGF-induced downregulation of E-cadherin", "setting": "[1]; [7]", "result": "less effective"}, {"measurement": "blocking of downregulation of E-cadherin (summary statement)", "setting": "[1]; [8]", "result": "partially blocked"}, {"measurement": "blocking of HGF-induced downregulation of Desmoglein 1", "setting": "[2]; [7]", "result": "less effective"}, {"measurement": "blocking of downregulation of Desmoglein 1 (summary statement)", "setting": "[2]; [8]", "result": "partially blocked"}]}
{"molecule": "HGF: multi-functional cytokine acting through tyrosine kinase receptor c-met; recombinant human HGF from R&D Systems", "values": [{"measurement": "expression levels of E-cadherin", "setting": "[1]; [9]", "result": "greatly reduced"}, {"measurement": "E-cadherin expression after pulse HGF", "setting": "[1]; [10]", "result": "did not alter; also recorded: did not cause downregulation"}, {"measurement": "growth stimulation", "setting": "[3]", "result": "No significant growth stimulation"}, {"measurement": "levels of c-Met", "setting": "[4]; after HGF treatment", "result": "did not change"}, {"measurement": "tyrosine-phosphorylated c-Met", "setting": "[4]; melanocytes and melanoma cells treated with additional HGF", "result": "dramatic increase"}, {"measurement": "expression levels of Desmoglein 1", "setting": "[2]; [9]", "result": "greatly reduced"}, {"measurement": "Desmoglein expression after pulse HGF", "setting": "[2]; [10]", "result": "did not alter; also recorded: did not cause downregulation"}]}
{"molecule": "Desmoglein 1 (other, human, UniProt Q02413 50-1049, looked up, Endogenous protein immunoprecipitated from detergent lysates of cultured human cells; also called Dsg1) EWIKFAAACREGEDNSKRNPIAKIHSDCAANQQVTYRISGVGIDQPPYGIFVINQKTGEINITSIVDREVTPFFIIYCRALNSMGQDLERPLELRVRVLDINDNPPVFSMATFAGQIEENSNANTLVMILNATDADEPNNLNSKIAFKIIRQEPSDSPMFIINRNTGEIRTMNNFLDREQYGQYALAVRGSDRDGGADGMSAECECNIKILDVNDNIPYMEQSSYTIEIQENTLNSNLLEIRVIDLDEEFSANWMAVIFFISGNEGNWFEIEMNERTNVGILKVVKPLDYEAMQSLQLSIGVRNKAEFHHSIMSQYKLKASAISVTVLNVIEGPVFRPGSKTYVVTGNMGSNDKVGDFVATDLDTGRPSTTVRYVMGNNPADLLAVDSRTGKLTLKNKVTKEQYNMLGGKYQGTILSIDDNLQRTCTGTININIQSFGNDDRTNTEPNTKITTNTGRQESTSSTNYDTSTTSTDSSQVYSSEPGNGAKDLLSDNVHFGPAGIGLLIMGFLVLGLVPFLMICCDCGGAPRSAAGFEPVPECSDGAIHSWAVEGPQPEPRDITTVIPQIPPDNANIIECIDNSGVYTNEYGGREMQDLGGGERMTGFELTEGVKTSGMPEICQEYSGTLRRNSMRECREGGLNMNFMESYFCQKAYAYADEDEGRPSNDCLLIYDIEGVGSPAGSVGCCSFIGEDLDDSFLDTLGPKFKKLADISLGKESYPDLDPSWPPQSTEPVCLPQETEPVVSGHPPISPHFGTTTVISESTYPSGPGVLHPKPILDPLGYGNVTVTESYTTSDTLKPSVHVHDNRPASNVVVTERVVGPISGADLHGMLEMPDLRDGSNVIVTERVIAPSSSLPTSLTIHHPRESSNVVVTERVIQPTSGMIGSLSMHPELANAHNVIVTERVVSGAGVTGISGTTGISGGIGSSGLVGTSMGAGSGALSGAGISGGGIGLSSLGGTASIGHMRSSSDHHFNQTIGSASPSTARSRITKYSTVQYSK", "values": [{"measurement": "binding result", "setting": "[5]", "result": "no binding"}]}
{"molecule": "Plakoglobin (other, human, UniProt P14923 1-745, looked up, Endogenous protein immunoprecipitated from detergent lysates of cultured human cells; also called gamma-catenin; y-catenin) MEVMNLMEQPIKVTEWQQTYTYDSGIHSGANTCVPSVSSKGIMEEDEACGRQYTLKKTTTYTQGVPPSQGDLEYQMSTTARAKRVREAMCPGVSGEDSSLLLATQVEGQATNLQRLAEPSQLLKSAIVHLINYQDDAELATRALPELTKLLNDEDPVVVTKAAMIVNQLSKKEASRRALMGSPQLVAAVVRTMQNTSDLDTARCTTSILHNLSHHREGLLAIFKSGGIPALVRMLSSPVESVLFYAITTLHNLLLYQEGAKMAVRLADGLQKMVPLLNKNNPKFLAITTDCLQLLAYGNQESKLIILANGGPQALVQIMRNYSYEKLLWTTSRVLKVLSVCPSNKPAIVEAGGMQALGKHLTSNSPRLVQNCLWTLRNLSDVATKQEGLESVLKILVNQLSVDDVNVLTCATGTLSNLTCNNSKNKTLVTQNSGVEALIHAILRAGDKDDITEPAVCALRHLTSRHPEAEMAQNSVRLNYGIPAIVKLLNQPNQWPLVKATIGLIRNLALCPANHAPLQEAAVIPRLVQLLVKAHQDAQRHVAAGTQQPYTDGVRMEEIVEGCTGALHILARDPMNRMEIFRLNTIPLFVQLLYSSVENIQRVAAGVLCELAQDKEAADAIDAEGASAPLMELLHSRNEGTATYAAAVLFRISEDKNPDYRKRVSVELTNSLFKHDPAAWEAAQSMIPINEPYGDDMDATYRPMYSSDVPLDPLEMHMDMDGDYPIDTYSDGLRPPYPTADHMLA", "values": [{"measurement": "binding result", "setting": "[6]", "result": "no binding"}]}
